Test results published in the NIST ThermoML archive (doi:10.1021/acs.jced.8b00854).

Experiments:
[1] = xn = mol fraction of the nth substance listed; details: 100 kPa, Liquid, Vibrating tube method
[2] = refractive index (Na D-line) (dimensionless); xn = mol fraction of the nth substance listed; details: 100 kPa, Liquid, Standard Abbe refractometry

CCCCn1cc[n+](C)c1.O=S(=O)([O-])C(F)(F)F [1-butyl-3-methylimidazolium trifluoromethanesulfonate] + O
Details | mass density, [1] [kg/m3] | refractive index, [2]
293.15 K, x1 = 0.1001 | 1176.55 | 1.396
293.15 K, x1 = 0.2003 | 1227.39 | 1.4145
293.15 K, x1 = 0.3007 | 1251.78 | 1.421
293.15 K, x1 = 0.4003 | 1266.32 | 1.4265
293.15 K, x1 = 0.5001 | 1275.87 | 1.4301
293.15 K, x1 = 0.5998 | 1282.43 | 1.432
293.15 K, x1 = 0.6995 | 1287.53 | 1.434
293.15 K, x1 = 0.8017 | 1291.5 | 1.4355
293.15 K, x1 = 0.8993 | 1294.38 | 1.4365
303.15 K, x1 = 0.1001 | 1169.14 | 1.3945
303.15 K, x1 = 0.2003 | 1219.44 | 1.411
303.15 K, x1 = 0.3007 | 1243.64 | 1.4195
303.15 K, x1 = 0.4003 | 1258.57 | 1.4245
303.15 K, x1 = 0.5001 | 1267.92 | 1.428
303.15 K, x1 = 0.5998 | 1274.38 | 1.4305
303.15 K, x1 = 0.6995 | 1279.4 | 1.4315
303.15 K, x1 = 0.8017 | 1283.28 | 1.4335
303.15 K, x1 = 0.8993 | 1286.22 | 1.4345
313.15 K, x1 = 0.1001 | 1161.07 | 1.3925
313.15 K, x1 = 0.2003 | 1210.91 | 1.4095
313.15 K, x1 = 0.3007 | 1235.41 | 1.418
313.15 K, x1 = 0.4003 | 1250.38 | 1.423
313.15 K, x1 = 0.5001 | 1259.88 | 1.426
313.15 K, x1 = 0.5998 | 1266.41 | 1.4285
313.15 K, x1 = 0.6995 | 1271.39 | 1.43
313.15 K, x1 = 0.8017 | 1275.29 | 1.431
313.15 K, x1 = 0.8993 | 1278.29 | 1.4325
323.15 K, x1 = 0.1001 | 1153.14 | 1.3915
323.15 K, x1 = 0.2003 | 1201.99 | 1.409
323.15 K, x1 = 0.3007 | 1226.91 | 1.4175
323.15 K, x1 = 0.4003 | 1241.75 | 1.421
323.15 K, x1 = 0.5001 | 1251.81 | 1.4245
323.15 K, x1 = 0.5998 | 1258.46 | 1.4255
323.15 K, x1 = 0.6995 | 1263.41 | 1.4275
323.15 K, x1 = 0.8017 | 1267.34 | 1.429
323.15 K, x1 = 0.8993 | 1270.34 | 1.4305
333.15 K, x1 = 0.1001 | 1143.31 | 1.3905
333.15 K, x1 = 0.2003 | 1193.54 | 1.408
333.15 K, x1 = 0.3007 | 1218.41 | 1.4155
333.15 K, x1 = 0.4003 | 1233.39 | 1.42
333.15 K, x1 = 0.5001 | 1243.49 | 1.422
333.15 K, x1 = 0.5998 | 1250.25 | 1.424
333.15 K, x1 = 0.6995 | 1255.51 | 1.4255
333.15 K, x1 = 0.8017 | 1259.46 | 1.427
333.15 K, x1 = 0.8993 | 1262.47 | 1.428
343.15 K, x1 = 0.1001 | 1133.11 | 1.389
343.15 K, x1 = 0.2003 | 1184.05 | 1.405
343.15 K, x1 = 0.3007 | 1209.18 | 1.415
343.15 K, x1 = 0.4003 | 1224.41 | 1.4185
343.15 K, x1 = 0.5001 | 1234.79 | 1.4215
343.15 K, x1 = 0.5998 | 1241.97 | 1.423
343.15 K, x1 = 0.6995 | 1247.23 | 1.4235
343.15 K, x1 = 0.8017 | 1251.33 | 1.4255
343.15 K, x1 = 0.8993 | 1254.45 | 1.4265

CCCCCCCCOS(=O)(=O)[O-].CCCCn1cc[n+](C)c1 [1-butyl-3-methylimidazolium octyl sulfate] + O
Details | mass density, [1] [kg/m3] | refractive index, [2]
293.15 K, x1 = 0.1002 | 1048.11 | 1.4235
293.15 K, x1 = 0.2002 | 1060.01 | 1.4455
293.15 K, x1 = 0.3004 | 1063.92 | 1.4555
293.15 K, x1 = 0.4004 | 1065.86 | 1.461
293.15 K, x1 = 0.501 | 1066.97 | 1.464
293.15 K, x1 = 0.5998 | 1067.84 | 1.467
293.15 K, x1 = 0.6988 | 1068.5 | 1.4685
293.15 K, x1 = 0.8 | 1069.33 | 1.47
293.15 K, x1 = 0.9018 | 1070.47 | 1.4705
303.15 K, x1 = 0.1002 | 1041.72 | 1.422
303.15 K, x1 = 0.2002 | 1052.71 | 1.4435
303.15 K, x1 = 0.3004 | 1057.16 | 1.453
303.15 K, x1 = 0.4004 | 1059.15 | 1.4585
303.15 K, x1 = 0.501 | 1060.3 | 1.462
303.15 K, x1 = 0.5998 | 1061.29 | 1.4645
303.15 K, x1 = 0.6988 | 1061.97 | 1.466
303.15 K, x1 = 0.8 | 1062.8 | 1.4675
303.15 K, x1 = 0.9018 | 1063.98 | 1.4685
313.15 K, x1 = 0.1002 | 1035.13 | 1.4215
313.15 K, x1 = 0.2002 | 1046.53 | 1.4415
313.15 K, x1 = 0.3004 | 1050.37 | 1.4525
313.15 K, x1 = 0.4004 | 1052.42 | 1.457
313.15 K, x1 = 0.501 | 1053.61 | 1.4595
313.15 K, x1 = 0.5998 | 1054.71 | 1.462
313.15 K, x1 = 0.6988 | 1055.42 | 1.4635
313.15 K, x1 = 0.8 | 1056.28 | 1.465
313.15 K, x1 = 0.9018 | 1057.53 | 1.466
323.15 K, x1 = 0.1002 | 1028.37 | 1.421
323.15 K, x1 = 0.2002 | 1039.57 | 1.4405
323.15 K, x1 = 0.3004 | 1043.56 | 1.45
323.15 K, x1 = 0.4004 | 1045.67 | 1.4555
323.15 K, x1 = 0.501 | 1046.92 | 1.457
323.15 K, x1 = 0.5998 | 1048.14 | 1.46
323.15 K, x1 = 0.6988 | 1048.87 | 1.461
323.15 K, x1 = 0.8 | 1049.77 | 1.462
323.15 K, x1 = 0.9018 | 1051.07 | 1.4635
333.15 K, x1 = 0.1002 | 1021.44 | 1.419
333.15 K, x1 = 0.2002 | 1032.54 | 1.44
333.15 K, x1 = 0.3004 | 1036.7 | 1.4495
333.15 K, x1 = 0.4004 | 1038.91 | 1.4535
333.15 K, x1 = 0.501 | 1040.19 | 1.4545
333.15 K, x1 = 0.5998 | 1041.4 | 1.4575
333.15 K, x1 = 0.6988 | 1042.35 | 1.4585
333.15 K, x1 = 0.8 | 1043.27 | 1.46
333.15 K, x1 = 0.9018 | 1044.63 | 1.461
343.15 K, x1 = 0.1002 | 1014.33 | 1.419
343.15 K, x1 = 0.2002 | 1025.58 | 1.4395
343.15 K, x1 = 0.3004 | 1029.67 | 1.4465
343.15 K, x1 = 0.4004 | 1032.07 | 1.452
343.15 K, x1 = 0.501 | 1033.23 | 1.453
343.15 K, x1 = 0.5998 | 1034.54 | 1.4565
343.15 K, x1 = 0.6988 | 1035.66 | 1.457
343.15 K, x1 = 0.8 | 1036.82 | 1.458
343.15 K, x1 = 0.9018 | 1038.23 | 1.459
